Like-named read-outs stand apart in the source and are kept apart here.
Test system: 284 cell lines
Assay: cells
Conditions: Homo sapiens
Procedure: A screen of 284 cell lines to assess the antiproliferative effect of EHMT2 inhibition was conducted by treating cell lines in 384-well format with a half-log step dilutions of Compound 205 over 10 concentrations with a maximum concentration of 0.1% v/v DMSO. Cells were plated on Day 0 and treated with compound on Day 1. Culture medium was replaced on day 7 and cells redosed. After 10-day incubation, cells were fixed and stained with nuclear dye. Automated fluorescence microscopy was carried out using a Molecular Devices ImageXpress Micro XL high-content imager, and images were collected with a 4× objective. 16-bit TIFF images were acquired and analyzed with MetaXpress 5.1.0.41 software. Cell proliferation was measured by the fluorescence intensity of the incorporated nuclear dye. Cell count IC50 is the test compound concentration at 50% of maximal response of the untreated control.

SMILES: CNc1cc(C)nc(Nc2ccc(OC)c(OCCCN3CCCC3)c2)n1 [Compound 205]
- IC50 (NCI-H508, read-out: Cell Count IC50, NCI-H508, Colon): > 10 µM
- IC50 (NCI-H520, read-out: Cell Count IC50, NCI-H520, Lung, NSCLC): > 10 µM
- IC50 (NCI-H596, read-out: Cell Count IC50, NCI-H596, Lung, NSCLC): > 10 µM
- IC50 (NCI-H661, read-out: Cell Count IC50, NCI-H661, Lung, NSCLC): 0.1 to 1 µM
- IC50 (NCI-H747, read-out: Cell Count IC50, NCI-H747, Colon): 1 to 10 µM
- IC50 (NTERA-2-cl-D1, read-out: Cell Count IC50, NTERA-2 cl.D1, Testis): 1 to 10 µM
- IC50 (OE19, read-out: Cell Count IC50, OE19, Head and Neck): > 10 µM
- IC50 (OE33, read-out: Cell Count IC50, OE33, Head and Neck): > 10 µM
- IC50 (OVCAR-3, read-out: Cell Count IC50, OVCAR3, Female GU, Ovary): > 10 µM
- IC50 (PANC-1, read-out: Cell Count IC50, PANC-1, Pancreas): 1 to 10 µM
- IC50 (PFSK-1, read-out: Cell Count IC50, PFSK-1, Central Nervous System, Glioma): > 10 µM
- IC50 (PSN1, read-out: Cell Count IC50, PSN-1, Pancreas): 1 to 10 µM
- IC50 (RKOE6, read-out: Cell Count IC50, RKOE6, Colon): 1 to 10 µM
- IC50 (RL95-2, read-out: Cell Count IC50, RL95-2, Female GU, Uterus): > 10 µM
- IC50 (RPMI-6666, read-out: Cell Count IC50, RPMI 6666, Hematopoietic, Lymphoma): 0.1 to 1 µM
- IC50 (RPMI-7951, read-out: Cell Count IC50, RPMI-7951, Skin, Melanoma): 1 to 10 µM
- IC50 (RPMI-8226, read-out: Cell Count IC50, RPMI 8226, Hematopoietic, Myeloma): 1 to 10 µM
- IC50 (RS4-11, read-out: Cell Count IC50, RS4;11, Hematopoietic, Leukemia): 1 to 10 µM
- IC50 (Raji, read-out: Cell Count IC50, Raji, Hematopoietic, Lymphoma): > 10 µM
- IC50 (Ramos, read-out: Cell Count IC50, Ramos (RA 1), Hematopoietic, Lymphoma): 1 to 10 µM
- IC50 (SAOS-2, read-out: Cell Count IC50, SaOS2, Bone, Osteosarcoma): 0.1 to 1 µM
- IC50 (SCC-4, read-out: Cell Count IC50, SCC-4, Head and Neck): > 10 µM
- IC50 (SCC-9, read-out: Cell Count IC50, SCC-9, Head and Neck): < 0.01 µM
- IC50 (SCC-25, read-out: Cell Count IC50, SCC-25, Head and Neck): < 0.01 µM
- IC50 (SCaBER, read-out: Cell Count IC50, SCaBER, Bladder): 1 to 10 µM
- IC50 (SHP77, read-out: Cell Count IC50, SHP-77, Lung, SCLC): > 10 µM
- IC50 (SJRH30, read-out: Cell Count IC50, SJRH30, Soft & Connective Tissue, Sarcoma): 1 to 10 µM
- IC50 (SJSA-1, read-out: Cell Count IC50, SJSA1, Bone, Osteosarcoma): 1 to 10 µM
- IC50 (SK-BR-3, read-out: Cell Count IC50, SK-BR-3, Breast): 1 to 10 µM
- IC50 (SK-LMS-1, read-out: Cell Count IC50, SK-LMS-1, Soft & Connective Tissue, Sarcoma): > 10 µM
- IC50 (SK-MEL3, read-out: Cell Count IC50, SK-MEL-3, Skin, Melanoma): 1 to 10 µM
- IC50 (SK-MEL-1, read-out: Cell Count IC50, SK-MEL-1, Skin, Melanoma): 1 to 10 µM
- IC50 (SK-MEL-28, read-out: Cell Count IC50, SK-MEL-28, Skin, Melanoma): 1 to 10 µM
- IC50 (SK-MES-1, read-out: Cell Count IC50, SKMES1, Lung, NSCLC): 1 to 10 µM
- IC50 (SK-N-AS, read-out: Cell Count IC50, SK-N-AS, Central Nervous System, Neuroblastoma): 1 to 10 µM
- IC50 (SK-N-FI, read-out: Cell Count IC50, SK-N-FI, Central Nervous System, Neuroblastoma): > 10 µM
- IC50 (SK-NEP-1, read-out: Cell Count IC50, SK-NEP-1, Kidney): > 10 µM
- IC50 (SK-OV-3, read-out: Cell Count IC50, SKOV3, Female GU, Ovary): > 10 µM
- IC50 (SK-UT-1, read-out: Cell Count IC50, SK-UT-1, Soft & Connective Tissue, Sarcoma): > 10 µM
- IC50 (SNB-19, read-out: Cell Count IC50, SNB-19, Central Nervous System, Glioma): 1 to 10 µM
- IC50 (SNU1, read-out: Cell Count IC50, SNU-1, Stomach): > 10 µM
- IC50 (SNU-5, read-out: Cell Count IC50, SNU-5, Stomach): 1 to 10 µM
- IC50 (SNU-16, read-out: Cell Count IC50, SNU-16, Stomach): 1 to 10 µM
- IC50 (SNU-423, read-out: Cell Count IC50, SNU-423, Liver): 1 to 10 µM
- IC50 (SNU-C2B, read-out: Cell Count IC50, SNU-C2B, Colon): 1 to 10 µM
- IC50 (ST486, read-out: Cell Count IC50, ST486, Hematopoietic, Lymphoma): 1 to 10 µM
- IC50 (SU-DHL10, read-out: Cell Count IC50, SU-DHL-10, Hematopoietic, Lymphoma): 1 to 10 µM
- IC50 (SU-DHL-4, read-out: Cell Count IC50, SU-DHL-4, Hematopoietic, Lymphoma): 0.1 to 1 µM
- IC50 (SU-DHL-8, read-out: Cell Count IC50, SU-DHL-8, Hematopoietic, Lymphoma): 1 to 10 µM
- IC50 (SU.86.86, read-out: Cell Count IC50, SU.86.86, Pancreas): > 10 µM
- IC50 (SUP-T1, read-out: Cell Count IC50, SUP-T1, Hematopoietic, Lymphoma): 1 to 10 µM
- IC50 (SW13, read-out: Cell Count IC50, SW-13, Endocrine, Adrenal gland): > 10 µM
- IC50 (SW48, read-out: Cell Count IC50, SW48, Colon): 1 to 10 µM
- IC50 (SW480, read-out: Cell Count IC50, SW480, Colon): 1 to 10 µM
- IC50 (SW684, read-out: Cell Count IC50, SW684, Soft & Connective Tissue, Sarcoma): 0.1 to 1 µM
- IC50 (SW837, read-out: Cell Count IC50, SW837, Colon): 1 to 10 µM
- IC50 (SW872, read-out: Cell Count IC50, SW872, Soft & Connective Tissue, Sarcoma): 1 to 10 µM
- IC50 (SW900, read-out: Cell Count IC50, SW900, Lung, SCLC): 1 to 10 µM
- IC50 (SW948, read-out: Cell Count IC50, SW948, Colon): > 10 µM
- IC50 (SW 954, read-out: Cell Count IC50, SW954, Female GU, Vulva): > 10 µM
- IC50 (SW 962, read-out: Cell Count IC50, SW962, Female GU, Vulva): > 10 µM
- IC50 (SW982, read-out: Cell Count IC50, SW982, Soft & Connective Tissue, Sarcoma): > 10 µM
- IC50 (SW1088, read-out: Cell Count IC50, SW1088, Central Nervous System, Glioma): 1 to 10 µM
- IC50 (SW1353, read-out: Cell Count IC50, SW1353, Bone, Osteosarcoma): > 10 µM
- IC50 (SW1417, read-out: Cell Count IC50, SW1417, Colon): 1 to 10 µM
- IC50 (SW1463, read-out: Cell Count IC50, SW1463, Colon): 0.1 to 1 µM
- IC50 (SW1783, read-out: Cell Count IC50, SW1783, Central Nervous System, Glioma): 1 to 10 µM
- IC50 (SW-403, read-out: Cell Count IC50, SW403, Colon): 1 to 10 µM
- IC50 (SW-620, read-out: Cell Count IC50, SW620, Colon): 1 to 10 µM
- IC50 (SiHa, read-out: Cell Count IC50, SiHa, Female GU, Cervix): 1 to 10 µM
- IC50 (T47D, read-out: Cell Count IC50, T47D, Breast): > 10 µM
